The values below come from article PMC7006651, “Effect of 6-Benzoyl-benzothiazol-2-one scaffold on the pharmacological profile of α-alkoxyphenylpropionic acid derived PPAR agonists” (Journal of Enzyme Inhibition and Medicinal Chemistry, 2020).

Structures are written as SMILES. Where only a bound is given, the exact number is not on record here.

In data set [1] the target is T1, human PPARγ (Homo sapiens, UniProt P37231).
T1 sequence (P37231 235-505 limits assumed): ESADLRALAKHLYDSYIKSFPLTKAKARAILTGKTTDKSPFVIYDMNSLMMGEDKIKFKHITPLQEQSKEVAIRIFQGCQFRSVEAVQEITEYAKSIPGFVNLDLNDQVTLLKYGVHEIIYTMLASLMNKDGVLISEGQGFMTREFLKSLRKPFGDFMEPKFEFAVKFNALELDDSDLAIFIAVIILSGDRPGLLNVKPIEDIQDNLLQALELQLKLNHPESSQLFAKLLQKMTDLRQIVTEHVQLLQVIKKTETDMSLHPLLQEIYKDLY
The experiment in a line: Membrane-bound PPARγ binding assay ([3H]rosiglitazone competition, filtration). The following applies: competition with [3H]rosiglitazone (4 nM), 180 min at 4 °C; read-out: Ki (nM), hPPARγ binding affinity. On the procedure:
The membrane-associated PPARγ was used as the biological source as previously described. Binding buffer consisted of 10 mM Tris/HCl, pH 8.2, containing 50 mM KCl and 1 mM dithiothreitol. […] Radioactivity was measured in a TopCount apparatus (Packard).

Data set [2] has as its target T2, human PPARα (Homo sapiens, UniProt Q07869).
T2 construct: expressed in transfected cells; host or cells: Cos-7
T2 sequence (Q07869 239-466 limits assumed): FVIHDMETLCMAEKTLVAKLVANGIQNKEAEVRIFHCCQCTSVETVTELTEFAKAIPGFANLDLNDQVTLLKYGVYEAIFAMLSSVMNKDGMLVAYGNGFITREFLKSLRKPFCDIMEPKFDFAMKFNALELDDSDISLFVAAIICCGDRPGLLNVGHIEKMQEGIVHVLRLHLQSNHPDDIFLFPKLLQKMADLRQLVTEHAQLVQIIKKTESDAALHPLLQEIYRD
The experiment in a line: Gene reporter (transactivation) assay, Cos-7 cells transfected with pGal4-hPPARα.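 On all read-outs here: luciferase signal from a Gal4-driven reporter normalised to cotransfected β-galactosidase activity, cells exposed to rising compound concentrations with DMSO vehicle as control.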 Type of data set: cell-based. The following applies: for Emax: COS-7, 24 h, Emax relative to maximum activation with WY14643 (10 µM) = 100%, read-out: hPPAR gene reporter αGal4 (%).
Method: (§1) Cos-7 cells were transiently transfected with luciferase reporter plasmid (pG5-TK-pGL3) in the presence of pGal4-hPPARα or pGal4-hPPARγ (these vectors express chimeric proteins containing the Gal4 DNA-binding domain fused to the human PPARα or PPARγ ligand binding domain coding sequence) expression vector. […] Cells were transfected in OptiMEM without FCS for 3 h at 37°, using polyethylenimine (PEI), with reporter and expression plasmids, as stated in figure’s legend. The plasmid pBluescript (Stratagene, La Jolla, CA) was used as carrier DNA to set the final amount of DNA to 5.5 µg/dish. The pCMV- ß-galactosidase expression plasmid was cotransfected as a control for transfection efficiency. […] After 16 h, cells were trypsinised and seeded in 96-well plates at the density of 2 × 10^4 cells/well and incubated for 6 h in 10% FCS containing DMEM. Cells were then incubated for 24 h in DMEM containing 0.2% FCS and increasing concentrations of the compound tested or vehicle (DMSO). At the end of the experiment, cells were washed once with ice-cold PBS and the luciferase and the β–galactosidase assays were performed as described previously[20]. Cells were incubated 24 h in the presence of indicated concentrations of compound. Luciferase activity was measured and normalised to internal control β-galactosidase activity. […] EC50 were estimated using Prism software (GraphPad). All transfection experiments were performed at least three times.

Data set [3] addresses T3, human PPARγ (Homo sapiens, UniProt P37231).
T3 construct: expressed in transfected cells; host or cells: Cos-7
T3 sequence (P37231 238-503 limits assumed): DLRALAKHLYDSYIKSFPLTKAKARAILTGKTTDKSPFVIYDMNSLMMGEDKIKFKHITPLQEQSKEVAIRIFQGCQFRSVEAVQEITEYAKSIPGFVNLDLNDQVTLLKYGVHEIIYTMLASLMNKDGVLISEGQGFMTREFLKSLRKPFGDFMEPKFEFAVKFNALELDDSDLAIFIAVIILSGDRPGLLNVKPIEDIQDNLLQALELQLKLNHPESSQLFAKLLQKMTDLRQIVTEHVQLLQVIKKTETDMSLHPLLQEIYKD
The data set is described as follows: Gene reporter (transactivation) assay, Cos-7 cells transfected with pGal4-hPPARγ.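 On all read-outs here: luciferase reporter (pG5-TK) activity normalised to cotransfected β-galactosidase, cells exposed to increasing compound concentrations in DMEM with 0.2% FCS, DMSO vehicle as control.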 It counts as cell-based. The conditions noted are these: Cos-7 cells, 24 h; for Emax: COS-7, 24 h, Emax relative to maximum activation with rosiglitazone (1 μM) = 100%, read-out: hPPAR gene reporter γGal4 (%); for EC50: GAL4 chimeric hPPARγ, read-out: hPPAR gene reporter γEC50.
Method: as §1

Data set [4] concerns CaCO2 cells. The data set is described as follows: CaCo2 cell absorption (membrane permeability model). It counts as in vitro ADME. The conditions noted are these: percentage of absorption. Here is the method: The in vivo effect of test compounds was determined by measuring glycaemia, triglyceridemia, insulinemia, and body weight using ob/ob mice (Table 3). The ob/ob mice were obese, insulin resistant with hypertriglyceridaemia and hyperglycaemia, and have been used as a rodent model of obesity-induced insulin resistance. […] As a side effect index, body weight was also measured daily, and body weight variation was calculated as a percentage of the difference in body weight between days 4 and 0. […] Benzoyl derivatives 32a, 41a and 42a were not evaluated in vivo with regard to their low absorption values with CaCO2 cells (< 25%), an in vitro model predicting membrane permeability. […] Indeed, incorporation of substituents such as methyl oxime ether and trifluoroethoxy group are benefiting for PPAR activity regulation and so for effective management of dyslipidemia without inducing body weight gain. […] The CF3 group incorporation, beyond keeping a good in vivo efficacy, provided a robust reduction of body weight induced with compound 44a, strengthening the beneficial pharmacological effect of C-H bond replacement with fluorine. Compound 44 b may be considered as a SPPARγM since this full PPARγ agonist retains the insulin-sensitizing and glucose-lowering actions while mitigating or eliminating the undesirable side effects.
In general terms: Passage across Caco-2 layers is used to estimate intestinal permeability.

For data set [5], the system named is ob/ob mice. The experiment in a line: In vivo ob/ob mice: glycaemia, triglyceridemia, insulinemia, body weight.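 Further: male ob/ob mice aged 10–12 weeks, given the compound once daily by oral gavage as a 1% hydroxyethylcellulose suspension, 8–12 animals per group.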 The conditions noted are these: oral, 4 days.
Method: The glucose- and triglyceride-lowering activities of the compounds prepared were then tested using 10–12-week-old male ob/ob mice. […] Mice had access to filtered (0.22 mm) tap water ad libitum and irradiated pelleted laboratory chow (transbreed, Special Diet Services, England) throughout the study. Compounds were prepared as a suspension in 1% hydroxyethylcellulose (HEC) for oral administration (10 mLkg^−1). The mice (n = 8–12 per group) were dosed by gavage daily between 15:00 and 17:00 for 4 days. Randomisation was performed based on glycaemia values. The body weight gain (DBW in grams) of the animals was determined by measuring the difference between body weight at the beginning and end of the study for each mouse. At day 5 between 9:00 and 11:00 the mice were weighed, and blood samples were collected into heparin-containing tubes by retro-orbital puncture (500 mL per mouse). […] Plasma samples were prepared by centrifugation (2000 g for 10 min), and stored at −20 °C. For triglycerides and insulin determination, the percent change in plasma level in the treated group was calculated relative to the mean plasma level in the vehicle-treated group. ANOVA, followed by Dunnett’s comparison test (one-tailed) was used to estimate significant differences between the plasma glycaemia, triglycerides, insulin, and DBW values between the control group and the individual compound-treated groups.
Where [6] appears, read: percent change versus control, ob/ob mice at day 4, synthesised compounds 8.4 µMkg^−1, references 3 mgkg^−1.

What is called Ki is the equilibrium dissociation constant of an inhibitor or competing ligand from its target. Usually melting point stands for the temperature, or range, at which the solid turns liquid. With `CCO[C@@H](Cc1ccc(OCCn2c(=O)sc3cc(C(=O)c4ccccc4)ccc32)cc1)C(=O)O` [Compound 41a, (S)-3-{4-[2–(6-benzoyl-2-oxo-benzothiazol-3-yl)-ethoxy]-phenyl}-2-ethoxypropionic acid], the melting point was in the range of 57 to 59 °C. Moreover, the Ki in data set [1] amounted to 0.5 nM. In data set [2], the Emax was determined as 166%. Further, the EC50 in data set [2] (GAL4 chimeric hPPARα, 24 h, read-out: hPPAR gene reporter αEC50) came out at 522 nM. In addition, in data set [3], the Emax was found to be 142% and the EC50 came to 8 nM. For the same compound, the “absorption with CaCO2 cells (CaCo2 permeability)” value (“absorption with CaCO2 cells” for short) in data set [4] was below 25%.

In turn, `CCO[C@H](Cc1ccc(OCCn2c(=O)sc3cc(C(=O)c4ccccc4)ccc32)cc1)C(=O)O` [Compound 42a, (R)-3-{4-[2–(6-benzoyl-2-oxo-benzothiazol-3-yl)-ethoxy]-phenyl}-2-ethoxypropionic acid] yielded a melting point of 57 to 59 °C. The Ki in data set [1] is 70 nM. The Emax in data set [2] was 0%. For the same compound, in data set [3], the Emax was 39% and the EC50 amounted to 300 nM. Besides, the “absorption with CaCO2 cells” value in data set [4] is below 25%.

As to `CCO[C@H](Cc1ccc(OCCn2c(=O)sc3cc(/C(=N/O)c4ccccc4)ccc32)cc1)C(=O)O` [Compound 45a, (R)-3-{4-[2–(6-[(E)-hydroxyimino-phenyl-methyl]-2-oxo-benzothiazol-3-yl)-ethoxy]-phenyl}-2-ethoxypropionic acid], the melting point fell in the range of 84 to 85 °C. In addition, the Ki in data set [1] amounted to 210 nM. In addition, in data set [2], the Emax was 30%. In data set [3], the Emax turned out to be 66% and the EC50 stood at 799 nM. Also, in data set [5] (expressed in % of rosiglitazone in the same study (= 100%), ob/ob mice, synthesised compounds 8.4 µMkg^−1, references 3 mgkg^−1), the “ΔBW (body weight variation between day 0 and day 4)” value was determined as 328%. For the same compound, the “in vivo activity in ob/ob mice” value in data set [5] was “inactive”. Moreover, in data set [5] (setting [6]), the “Change (%) Gly (glycemia)” value is recorded as −7%, the “Change (%) Ins (insulin)” value was found to be 51% and the “Change (%) TG (triglycerides)” value was 21%. For the same compound, the “absorption with CaCO2 cells” value in data set [4] is 31%.
